Measurements from BigSolDB 2.1.

CC(C)N1C(=O)N(c2ccccc2)CSC1=NC(C)(C)C
solubility (mole fraction)
Details | 273.15 K | 278.15 K | 283.15 K | 288.15 K | 293.15 K | 298.15 K | 303.15 K | 308.15 K | 313.15 K | 318.15 K
in DMF | 0.0306 | 0.0389 | 0.0493 | 0.0608 | 0.0725 | 0.0871 | 0.104 | 0.122 | 0.141 | 0.162
in acetone | 0.03 | 0.0361 | 0.0427 | 0.0504 | 0.0593 | 0.0699 | 0.0814 | 0.096 | 0.114 | 0.134
in acetonitrile | 0.00534 | 0.00774 | 0.0101 | 0.0133 | 0.0171 | 0.0219 | 0.0284 | 0.0354 | 0.0448 | 0.0564
in ethanol | 0.00539 | 0.007 | 0.00917 | 0.0116 | 0.0146 | 0.0182 | 0.0228 | 0.0276 | 0.0342 | 0.0425
in ethyl acetate | 0.0372 | 0.0465 | 0.0561 | 0.0679 | 0.0815 | 0.0971 | 0.116 | 0.136 | 0.16 | 0.187
in isopropanol | 0.00586 | 0.00785 | 0.0103 | 0.0131 | 0.0165 | 0.0207 | 0.0254 | 0.031 | 0.0376 | 0.0454
in methanol | 0.00377 | 0.00497 | 0.0064 | 0.00797 | 0.00998 | 0.0123 | 0.0154 | 0.0184 | 0.0225 | 0.0272
in n-butanol | 0.00627 | 0.00908 | 0.0127 | 0.0167 | 0.0218 | 0.0281 | 0.0364 | 0.045 | 0.0577 | 0.0714
in n-octanol | 0.00824 | 0.0114 | 0.0152 | 0.0197 | 0.0251 | 0.0321 | 0.0404 | 0.0505 | 0.063 | 0.0789
in n-propanol | 0.00564 | 0.00798 | 0.011 | 0.0148 | 0.019 | 0.0254 | 0.0323 | 0.0414 | 0.0528 | 0.0668
in toluene | 0.053 | 0.0651 | 0.0782 | 0.0924 | 0.11 | 0.128 | 0.15 | 0.172 | 0.198 | 0.227
in water | 2.84e-05 | 3.48e-05 | 4.18e-05 | 5.08e-05 | 6.05e-05 | 7.26e-05 | 8.54e-05 | 0.000101 | 0.00012 | 0.000144
